Read-outs that look alike come from different tables or passages of the source.
Test: Single dose PK in healthy subjects (Cohorts 1, 2, S1 and S2), plasma
Format: in vivo, human
Settings: human, plasma
Protocol: This study investigates (i) the safety and tolerability of Compound A (methyl (2R,3S)-3-((methylsulfonyl)amino)-2-(((cis-4-phenylcyclohexyl)oxy)methyl)piperidine-1-carboxylate) when a single dose given as a 9 hour continuous IV infusion is administered to healthy adults, healthy elderly subjects and patients with narcolepsy type 1 (NT1); (ii) the pharmacokinetics of Compound A when a single dose given as a 9 hour continuous IV infusion is administered to healthy adults, healthy elderly subjects and patients with narcolepsy type 1; and (iii) the pharmacodynamics (PD) effects of Compound A, primarily by evaluation of the sleep latency on MWT when a single dose given as a 9 hour continuous IV infusion is administered to patients with narcolepsy type 1.
Pharmacokinetics: Concentrations of Compound A in plasma, and CSF, and pharmacokinetics parameters.
On average, the time to reach the plateau appeared to be approximately 3 to 4 hours after the start of infusion. […] After switching off the IV infusion, Compound A plasma concentrations declined rapidly and in a biphasic manner with a mean terminal disposition phase t1/2z ranging approximately from 3.4 to 5.1 hours across all doses. […] Table 5 provides a summary of plasma concentrations of Compound A after a single IV infusion in healthy subjects. Table 6 provides a summary of pharmacokinetic parameters of Compound A after a single IV infusion in healthy subjects.

[1] = intravenous, 180 mg, read-out: Plasma concentration, Maximum
[2] = intravenous, 180 mg, read-out: Plasma concentration, Mean
[3] = intravenous, 180 mg, read-out: Plasma concentration, Median
[4] = intravenous, 180 mg, read-out: Plasma concentration, Minimum
[5] = intravenous, 180 mg, read-out: Plasma concentration, Q1
[6] = intravenous, 180 mg, read-out: Plasma concentration, Q3
[7] = intravenous, 240 mg, read-out: Plasma concentration, Mean
[8] = intravenous, 240 mg, read-out: Plasma concentration, Minimum
[9] = intravenous, 240 mg, read-out: Plasma concentration, Q1

Compound `COC(=O)N1CCC[C@H](NS(C)(=O)=O)[C@@H]1CO[C@H]1CC[C@@H](c2ccccc2)CC1` [Compound A, methyl (2R,3S)-3-((methylsulfonyl)amino)-2-(((cis-4-phenylcyclohexyl)oxy)methyl)piperidine-1-carboxylate] has a concentration at 1 h [1] of 265 ng/mL, a concentration at 1 h [2] of 216 ng/mL and a concentration at 1 hr [3] of 215 ng/mL. The concentration at 1 hr [4] was 173 ng/mL, the concentration at 1 hr [5] was 201 ng/mL and the concentration at 1 h [6] was 229 ng/mL. It also gave a concentration at 1.5 h [1] of 304 ng/mL, a concentration at 1.5 h [2] of 255 ng/mL and a concentration at 1.5 hr [3] of 242 ng/mL. For the same compound, the concentration at 1.5 hr [4] was 224 ng/mL, the concentration at 1.5 hr [5] was 228 ng/mL and the concentration at 1.5 h [6] was 290 ng/mL. It also gave a concentration at 2 h [1] of 341 ng/mL, a concentration at 2 h [2] of 294 ng/mL and a concentration at 2 hr [3] of 292 ng/mL. For the same compound, the concentration at 2 hr [4] was 251 ng/mL, the concentration at 2 hr [5] was 271 ng/mL and the concentration at 2 h [6] was 320 ng/mL. It also gave a concentration at 3 h [1] of 355 ng/mL, a concentration at 3 h [2] of 315 ng/mL and a concentration at 3 hr [3] of 314 ng/mL. For the same compound, the concentration at 3 hr [4] was 276 ng/mL, the concentration at 3 hr [5] was 307 ng/mL and the concentration at 3 h [6] was 324 ng/mL. For the same compound, the concentration at 4 h [1] was 361 ng/mL, the concentration at 4 hr [2] was 328 ng/mL and the concentration at 4 hr [3] was 325 ng/mL. For the same compound, the concentration at 4 hr [4] was 293 ng/mL, the concentration at 4 hr [5] was 304 ng/mL and the concentration at 4 h [6] was 358 ng/mL. The concentration at 6 h [1] was 322 ng/mL, the concentration at 6 hr [2] was 292 ng/mL and the concentration at 6 hr [3] was 292 ng/mL. For the same compound, the concentration at 6 hr [4] was 252 ng/mL, the concentration at 6 hr [5] was 285 ng/mL and the concentration at 6 h [6] was 311 ng/mL. The concentration at 8 h [1] was 337 ng/mL, the concentration at 8 h [2] was 300 ng/mL and the concentration at 8 hr [3] was 292 ng/mL. It also gave a concentration at 8 hr [4] of 275 ng/mL, a concentration at 8 hr [5] of 277 ng/mL and a concentration at 8 hr [6] of 330 ng/mL. For the same compound, the concentration at 9 h (intravenous, 180 mg, 9 hr, read-out: Plasma concentration, Maximum) was 364 ng/mL, the concentration at 9 h (intravenous, 180 mg, 9 hr, read-out: Plasma concentration, Mean) was 325 ng/mL and the concentration at 9 hr (intravenous, 180 mg, 9 hr, read-out: Plasma concentration, Median) was 316 ng/mL. For the same compound, the concentration at 9 hr (intravenous, 180 mg, 9 hr, read-out: Plasma concentration, Minimum) was 285 ng/mL, the concentration at 9 hr (intravenous, 180 mg, 9 hr, read-out: Plasma concentration, Q1) was 311 ng/mL and the concentration at 9 hr (intravenous, 180 mg, 9 hr, read-out: Plasma concentration, Q3) was 358 ng/mL. The concentration at 0.5 h (intravenous, 240 mg, 0.5 hr, read-out: Plasma concentration, Mean) was 292 ng/mL, the concentration at 0.5 hr (intravenous, 240 mg, 0.5 hr, read-out: Plasma concentration, Minimum) was 228 ng/mL and the concentration at 0.5 hr (intravenous, 240 mg, 0.5 hr, read-out: Plasma concentration, Q1) was 230 ng/mL. The concentration at 1 h [7] was 345 ng/mL, the concentration at 1 hr [8] was 265 ng/mL and the concentration at 1 hr [9] was 286 ng/mL. The concentration at 1.5 h [7] was 388 ng/mL, the concentration at 1.5 hr [8] was 315 ng/mL and the concentration at 1.5 hr [9] was 333 ng/mL. It also gave a concentration at 2 h [7] of 403 ng/mL, a concentration at 2 hr [8] of 337 ng/mL and a concentration at 2 hr [9] of 349 ng/mL. It also gave a concentration at 3 h [7] of 456 ng/mL, a concentration at 3 hr [8] of 393 ng/mL and a concentration at 3 hr [9] of 400 ng/mL. It also gave a concentration at 4 h [7] of 493 ng/mL, a concentration at 4 hr [8] of 388 ng/mL and a concentration at 4 hr [9] of 423 ng/mL. It also gave a concentration at 6 h [7] of 428 ng/mL, a concentration at 6 hr [8] of 335 ng/mL and a concentration at 6 hr [9] of 366 ng/mL. The concentration at 8 h [7] was 474 ng/mL, the concentration at 8 h [8] was 393 ng/mL and the concentration at 8 hr [9] was 409 ng/mL. It also gave a concentration at 9 h (intravenous, 240 mg, 9 hr, read-out: Plasma concentration, Mean) of 497 ng/mL, a concentration at 9 hr (intravenous, 240 mg, 9 hr, read-out: Plasma concentration, Minimum) of 417 ng/mL and a concentration at 9 hr (intravenous, 240 mg, 9 hr, read-out: Plasma concentration, Q1) of 452 ng/mL. The AUC (iv, 7 mg, 7 mg single IV infusion, healthy subjects, read-out: AUC24 Geo Mean) was 140 ng·h/mL, the AUC (iv, 7 mg, 7 mg single IV infusion, healthy subjects, read-out: AUC24 Mean) was 142 ng·h/mL and the AUC (iv, 7 mg, 7 mg single IV infusion, healthy subjects, read-out: AUC24 Median) was 142 ng·h/mL. For the same compound, the AUC(0-inf) (iv, 7 mg, 7 mg single IV infusion, healthy subjects, read-out: AUCinf Geo Mean) was 142 ng·h/mL, the AUC(0-inf) (iv, 7 mg, 7 mg single IV infusion, healthy subjects, read-out: AUCinf Mean) was 143 ng·h/mL and the AUC(0-inf) (iv, 7 mg, 7 mg single IV infusion, healthy subjects, read-out: AUCinf Median) was 146 ng·h/mL. The AUC(0-t) (iv, 7 mg, 7 mg single IV infusion, healthy subjects, read-out: AUClast Geo Mean) was 138 ng·h/mL, the AUC(0-t) (iv, 7 mg, 7 mg single IV infusion, healthy subjects, read-out: AUClast Mean) was 140 ng·h/mL and the AUC(0-t) (iv, 7 mg, 7 mg single IV infusion, healthy subjects, read-out: AUClast Median) was 142 ng·h/mL. The clearance (iv, 7 mg, 7 mg single IV infusion, healthy subjects, read-out: CL Mean (converted)) was 833 mL/min, the concentration at 9 h (iv, 7 mg, 7 mg single IV infusion, healthy subjects, read-out: Ceoi Geo Mean) was 13.4 ng/mL and the concentration at 9 h (iv, 7 mg, 7 mg single IV infusion, healthy subjects, read-out: Ceoi Mean) was 13.5 ng/mL. For the same compound, the concentration at 9 h (iv, 7 mg, 7 mg single IV infusion, healthy subjects, read-out: Ceoi Median) was 13.9 ng/mL, the Cmax (iv, 7 mg, 7 mg single IV infusion, healthy subjects, read-out: Cmax Geo Mean) was 16.7 ng/mL and the Cmax (iv, 7 mg, 7 mg single IV infusion, healthy subjects, read-out: Cmax Mean) was 16.9 ng/mL. The Cmax (iv, 7 mg, 7 mg single IV infusion, healthy subjects, read-out: Cmax Median) was 16.5 ng/mL, the Vd (iv, 7 mg, 7 mg single IV infusion, healthy subjects, read-out: Vss Mean) was 82.9 L and the Vd (iv, 7 mg, 7 mg single IV infusion, healthy subjects, read-out: Vz Mean) was 292 L. The Vd (iv, 7 mg, 7 mg single IV infusion, healthy subjects, read-out: Vz Median) was 303 L, the Tmax (iv, 7 mg, 7 mg single IV infusion, healthy subjects, read-out: tmax Mean) was 3 h and the Tmax (iv, 7 mg, 7 mg single IV infusion, healthy subjects, read-out: tmax Median) was 3 h. It also gave an AUC (iv, 14 mg, 14 mg single IV infusion, healthy subjects, read-out: AUC24 Geo Mean) of 323 ng·h/mL, an AUC (iv, 14 mg, 14 mg single IV infusion, healthy subjects, read-out: AUC24 Mean) of 326 ng·h/mL and an AUC (iv, 14 mg, 14 mg single IV infusion, healthy subjects, read-out: AUC24 Median) of 322 ng·h/mL. The AUC(0-inf) (iv, 14 mg, 14 mg single IV infusion, healthy subjects, read-out: AUCinf Geo Mean) was 328 ng·h/mL and the AUC(0-inf) (iv, 14 mg, 14 mg single IV infusion, healthy subjects, read-out: AUCinf Mean) was 331 ng·h/mL.

Source: patent US20220339143A1, “TAK-925 FOR USE IN TREATING NARCOLEPSY” (Takeda Pharmaceutical Company Limited, priority 2019, published 2022)
